Measurements taken from US8119681B2, “2-[1-phenyl-5-hydroxy or methoxy-4alpha-methyl-hexahydrocyclopenta [ƒ]indazole-5-YL]ethyl phenyl derivatives as glucocorticoid receptor ligands” (Merck Sharp & Dohme Corp., priority 2006, dated 2012).

Tests used:
human GR [1] = molecular target: T1, human GR (Homo sapiens, UniProt P04150); test: Trans-Activation Modulation of Glucocorticoid Receptor (GRAMMER), MMTV-LUC reporter gene; format: cell-based; parameters: endogenous in cells; conditions: for Emax: A549, read-out: Transactivation A549 Cells GRAMMER Emax (%); for EC50: Table 1, A549 cells, IP = inflection point, read-out: Transactivation A549 Cells GRAMMER IP
T1 sequence (P04150 1-777): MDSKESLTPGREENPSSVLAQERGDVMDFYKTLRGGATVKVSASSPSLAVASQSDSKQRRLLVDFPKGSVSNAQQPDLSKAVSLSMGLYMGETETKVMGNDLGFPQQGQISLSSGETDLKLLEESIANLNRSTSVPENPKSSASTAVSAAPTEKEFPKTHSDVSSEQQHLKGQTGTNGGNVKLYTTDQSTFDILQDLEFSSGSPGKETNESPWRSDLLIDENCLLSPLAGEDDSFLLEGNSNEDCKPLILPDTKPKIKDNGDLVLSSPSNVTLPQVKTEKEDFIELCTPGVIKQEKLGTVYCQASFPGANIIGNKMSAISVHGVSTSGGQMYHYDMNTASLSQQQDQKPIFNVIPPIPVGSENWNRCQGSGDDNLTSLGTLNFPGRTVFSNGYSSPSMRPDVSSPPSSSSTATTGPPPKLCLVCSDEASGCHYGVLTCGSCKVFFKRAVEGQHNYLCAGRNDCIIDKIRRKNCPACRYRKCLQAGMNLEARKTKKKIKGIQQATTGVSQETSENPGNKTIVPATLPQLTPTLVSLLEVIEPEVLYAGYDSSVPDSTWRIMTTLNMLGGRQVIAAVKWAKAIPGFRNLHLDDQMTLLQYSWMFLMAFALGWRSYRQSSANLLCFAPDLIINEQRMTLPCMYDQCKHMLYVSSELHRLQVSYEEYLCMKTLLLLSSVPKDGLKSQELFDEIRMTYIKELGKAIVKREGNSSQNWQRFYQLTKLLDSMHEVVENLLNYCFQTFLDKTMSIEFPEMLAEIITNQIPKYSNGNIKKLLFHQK

human GR [2] = molecular target: T1, human GR; test: Transrepression Assay (GITAR), TNFα-β-lactamase reporter gene in U937 cells; format: cell-based; parameters: U937 cells contain an endogenous glucocorticoid receptor (GR); endogenous in cells; host or cells: U937 cells stably transfected with the TNF-α promoter/β-lactamase reporter only; conditions: for EC50: IP = inflection point, read-out: Transrepression U937 Cells GITAR IP; for GITAR > GRAMM % SEP: separation of GITAR Emax over GRAMMER Emax; for Emax: U-937
In short: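 Reporter readout used CCF2-AM loading for 70–90 min at room temperature after overnight (~18 h, 37 °C) PMA (5 ng/ml final) and LPS (100 ng/ml final) stimulation of compound-treated (30–45 min) TNFα-β-lactamase U937 cells expressing native GR. Activity was normalised to 100 nM dexamethasone repression.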

[3] = 100 nM dexamethasone = 100% activity, read-out: maximal activity in the transrepression assay
[4] = Table 1, U937 cells, activity repressed by 100 nM dexamethasone = 100%, read-out: Transrepression U937 Cells GITAR Emax (%)

Structure (SMILES)	Emax (human GR [1])	EC50 (human GR [1])	EC50 (human GR [2]; Table 1, U937 cells)	GITAR > GRAMM % SEP (human GR [2]; Table 1)	Emax (human GR [2]; [3])	Emax (human GR [2]; [4])	Transrepression U937 Cells GITAR Emax (%) (human GR [2]; Table 1, U937 cells, activity repressed by 100 nM dexamethasone = 100%)
CN(C)S(=O)(=O)NCc1c(F)cccc1CC[C@]1(O)CCC2=Cc3c(cnn3-c3ccc(F)cc3)C[C@@]21C [Example 89, N′-(2-fluoro-6-{2-[(4αS,5R)-1-(4-fluorophenyl)-5-hydroxy-4α-methyl-1,4,4α,5,6,7-hexahydrocyclopenta[f]indazol-5-yl]ethyl}benzyl)-N,N-dimethylsulfamide]	20%	43 nM	64 nM	50%	5 to 100%	70%	
C[C@]12Cc3cnn(-c4ccc(F)cc4)c3C=C1CC[C@@]2(O)CCc1ccccc1C1(NS(=O)(=O)C2CC2)CC1 [Example 91, N-[1-(2-{2-[(4αS,5R)-1-(4-fluorophenyl)-5-hydroxy-4α-methyl-1,4,4α,5,6,7-hexahydrocyclopenta[f]indazol-5-yl]ethyl}phenyl)cyclopropyl]cyclopropanesulfonamide]	46%	121 nM	231 nM	26%		72%	
C[C@]12Cc3cnn(-c4ccc(F)cc4)c3C=C1CC[C@@]2(O)CCc1ccccc1CC(N)=O [Example 107, 2-(2-{2-[(4αS,5R)-1-(4-fluorophenyl)-5-hydroxy-4α-methyl-1,4,4α,5,6,7-hexahydrocyclopenta[f]indazol-5-yl]ethyl}phenyl)acetamide]	37%	261 nM	217 nM	29%	5 to 100%	66%	
CN(C)S(=O)(=O)Nc1c(F)cccc1CC[C@]1(O)CCC2=Cc3c(cnn3-c3ccc(F)cc3)C[C@@]21C [Example 113, N′-(2-fluoro-6-{2-[(4αS,5R)-1-(4-fluorophenyl)-5-hydroxy-4α-methyl-1,4,4α,5,6,7-hexahydrocyclopenta[f]indazol-5-yl]ethyl}phenyl)-N,N-dimethylsulfamide]	32%	205 nM	207 nM	39%	5 to 100%	71%	
CCS(=O)(=O)Nc1ccccc1CC[C@]1(O)CCC2=Cc3c(cnn3-c3ccc(F)cc3)C[C@@]21C [Example 114, N-(2-{2-[(4αS,5R)-1-(4-fluorophenyl)-5-hydroxy-4α-methyl-1,4,4α,5,6,7-hexahydrocyclopenta[f]indazol-5-yl]ethyl}phenyl)ethanesulfonamide]	43%	221 nM	199 nM	34%	5 to 100%	78%	
CN(C)S(=O)(=O)c1ccccc1CC[C@]1(O)CCC2=Cc3c(cnn3-c3ccc(F)cc3)C[C@@]21C [Example 138, 2-{2-[(4αS,5R)-1-(4-fluorophenyl)-5-hydroxy-4α-methyl-1,4,4α,5,6,7-hexahydrocyclopenta[f]indazol-5-yl]ethyl}-N,N-dimethylbenzenesulfonamide]	55%	137 nM	212 nM	17%	5 to 100%	72%	
CCS(=O)(=O)c1ccccc1CC[C@]1(O)CCC2=Cc3c(cnn3-c3ccc(F)cc3)C[C@@]21C [Example 143, (4αS,5R)-5-{2-[2-(ethylsulfonyl)phenyl]ethyl}-1-(4-fluorophenyl)-4α-methyl-1,4,4α,5,6,7-hexahydrocyclopenta[f]indazol-5-ol]	41%	118 nM	194 nM	29%	5 to 100%	70%	
C[C@]12Cc3cnn(-c4ccc(F)cc4)c3C=C1CC[C@@]2(O)CCc1ccccc1S(=O)(=O)C1CC1 [Example 144, (4αS,5R)-5-{2-[2-(cyclopropylsulfonyl)phenyl]ethyl}-1-(4-fluorophenyl)-4α-methyl-1,4,4α,5,6,7-hexahydrocyclopenta[f]indazol-5-ol]	40%	268 nM	212 nM		5 to 100%	70%	
C[C@]12Cc3cnn(-c4ccc(F)cc4)c3C=C1CC[C@@]2(O)/C=C/c1ccccc1S(N)(=O)=O [Example 160, 2-{(E)-2-[(4αS,5R)-1-(4-fluorophenyl)-5-hydroxy-4α-methyl-1,4,4α,5,6,7-hexahydrocyclopenta[f]indazol-5-yl]vinyl}benzenesulfonamide]		118 nM	274 nM	42%			72%

Now from value to molecule, other results behind:

Emax (human GR [1])	EC50 (human GR [1])	EC50 (human GR [2]; Table 1, U937 cells)	GITAR > GRAMM % SEP (human GR [2]; Table 1)	Emax (human GR [2]; [3])	Emax (human GR [2]; [4])	Structure (SMILES)	Transrepression U937 Cells GITAR Emax (%) (human GR [2]; Table 1, U937 cells, activity repressed by 100 nM dexamethasone = 100%)
57%	43 nM	46 nM	18%	5 to 100%	75%	C[C@]12Cc3cnn(-c4ccc(F)cc4)c3C=C1CC[C@@]2(O)CCc1cccc(F)c1CO [Example 148, (4αS,5R)-5-{2-[3-fluoro-2-(hydroxymethyl)phenyl]ethyl}-1-(4-fluorophenyl)-4α-methyl-1,4,4α,5,6,7-hexahydrocyclopenta[f]indazol-5-ol]	
43%	170 nM	207 nM	33%	5 to 100%	76%	C[C@]12Cc3cnn(-c4ccc(F)cc4)c3C=C1CC[C@@]2(O)CCc1cccc(F)c1[C@H](N)C(F)(F)F [Example 151, (4αS,5R)-5-(2-{2-[(1S)-1-amino-2,2,2-trifluoroethyl]-3-fluorophenyl}ethyl)-1-(4-fluorophenyl)-4α-methyl-1,4,4α,5,6,7-hexahydrocyclopenta[f]indazol-5-ol]	
44%	223 nM	247 nM	34%	5 to 100%	77%	C[C@]12Cc3cnn(-c4ccc(F)cc4)c3C=C1CC[C@@]2(O)CCc1cccc(F)c1[C@@H](N)C(F)(F)F [Example 152, (4αS,5R)-5-(2-{2-[(1R)-1-amino-2,2,2-trifluoroethyl]-3-fluorophenyl}ethyl)-1-(4-fluorophenyl)-4α-methyl-1,4,4α,5,6,7-hexahydrocyclopenta[f]indazol-5-ol]	
47%	278 nM	189 nM	22%	5 to 100%	69%	C[C@]12Cc3cnn(-c4ccc(F)cc4)c3C=C1CC[C@@]2(O)CCc1ccccc1C(=O)N1CC(=O)C1 [Example 156, 1-(2-{2-[(4αS,5R)-1-(4-fluorophenyl)-5-hydroxy-4α-methyl-1,4,4α,5,6,7-hexahydrocyclopenta[f]indazol-5-yl]ethyl}benzoyl)azetidin-3-one]	
45%	240 nM	194 nM	18%	5 to 100%	63%	CC(=O)Cc1ccccc1CC[C@]1(O)CCC2=Cc3c(cnn3-c3ccc(F)cc3)C[C@@]21C [Example 157, 1-(2-{2-[(4αS,5R)-1-(4-fluorophenyl)-5-hydroxy-4α-methyl-1,4,4α,5,6,7-hexahydrocyclopenta[f]indazol-5-yl]ethyl}phenyl)acetone]	
37%	197 nM	125 nM	36%	5 to 100%	73%	C[C@]12Cc3cnn(-c4ccc(F)cc4)c3C=C1CC[C@@]2(O)CCc1ccc(F)cc1C(N)=O [Example 159, 5-fluoro-2-{2-[(4αS,5R)-1-(4-fluorophenyl)-5-hydroxy-4α-methyl-1,4,4α,5,6,7-hexahydrocyclopenta[f]indazol-5-yl]ethyl}benzamide]	
48%	103 nM	299 nM	23%	5 to 100%	70%	C[C@]12Cc3cnn(-c4ccc(F)cc4)c3C=C1CC[C@@]2(O)CCc1ccc(F)cc1C#N [Example 163, 5-fluoro-2-{2-[(4αS,5R)-1-(4-fluorophenyl)-5-hydroxy-4α-methyl-1,4,4α,5,6,7-hexahydrocyclopenta[f]indazol-5-yl]ethyl}benzonitrile]	
